For 30 compounds, Emax and IC50 results are on record in patent US11524938B2, “Aromatic sulfonamide derivatives” (Bayer Pharma Aktiengesellschaft, priority 2016, dated 2022).

One may read the pIC50 as the negative decadic logarithm of the IC50, by convention in mol/L. A high value points to a small IC50.

pIC50: −log10 of the molar value. “And” between values parts separate entries of the source, which are not always exact repeats. Identical values can stand only once. Where only a bound is given, the exact number is not on record here.

This assay concerns the target T1, human P2X4 (Homo sapiens, UniProt Q99571).
T1 sequence (Q99571 1-388): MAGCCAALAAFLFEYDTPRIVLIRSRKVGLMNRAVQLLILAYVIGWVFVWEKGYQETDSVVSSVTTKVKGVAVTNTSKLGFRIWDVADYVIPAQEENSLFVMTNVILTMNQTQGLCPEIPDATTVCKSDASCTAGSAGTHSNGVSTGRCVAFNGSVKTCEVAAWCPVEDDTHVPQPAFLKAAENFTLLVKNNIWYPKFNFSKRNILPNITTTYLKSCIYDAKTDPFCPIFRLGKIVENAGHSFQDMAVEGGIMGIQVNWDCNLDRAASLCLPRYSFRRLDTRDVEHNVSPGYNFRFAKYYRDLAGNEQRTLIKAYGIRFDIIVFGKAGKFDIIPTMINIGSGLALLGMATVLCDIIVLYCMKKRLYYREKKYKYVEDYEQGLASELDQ
Kind of assay: Human P2X4 HEK Cell FLIPR Assay. Conditions: agonist Bz-ATP at EC80; for Emax: HEK293, HEK293 cells, percentage of maximal inhibition, read-out: Human P2X4 HEK Cells (FLIPR Assay) avg Efficacy [%]; for pIC50: HEK293 cells, individual values listed where some fall outside detection range. It counts as cell-based. Put shortly:
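HEK293 cells stably expressing human P2X4, Fluo8-AM loaded 30 min at 37° C, then compound 30 min at room temperature (0.5% DMSO, pH 7.4 buffer with 1.8 mM CaCl2). Bz-ATP at its daily-determined EC80 added; calcium fluorescence read over 120 sec; IC50 from peak RFU normalized to agonist control, triplicates.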

For the compound `NS(=O)(=O)c1cc(NC(=O)Cc2ccccc2Cl)ccc1-c1cncs1` [Example 418, 2-(2-Chlorophenyl)-N-[3-sulfamoyl-4-(1,3-thiazol-5-yl)phenyl]acetamide], the Emax was 91% and the pIC50 is 7.82.

`NS(=O)(=O)c1cc(NC(=O)Cc2ccccc2Cl)ccc1-c1ccsn1` [Example 419, 2-(2-Chlorophenyl)-N-[3-sulfamoyl-4-(1,2-thiazol-3-yl)phenyl]acetamide]: the Emax worked out at 89% and the pIC50 was 6.56.

As for `Cc1nc(-c2ccc(NC(=O)Cc3ccccc3Cl)cc2S(N)(=O)=O)cs1` [Example 420, 2-(2-Chlorophenyl)-N-[4-(2-methyl-1,3-thiazol-4-yl)-3-sulfamoylphenyl]acetamide], the Emax worked out at 75% and the pIC50 was 7.16.

For the compound `COc1nc(-c2ccc(NC(=O)Cc3ccccc3Cl)cc2S(N)(=O)=O)cs1` [Example 421, 2-(2-Chlorophenyl)-N-[4-(2-methoxy-1,3-thiazol-4-yl)-3-sulfamoylphenyl]acetamide], the Emax turned out to be 86% and the negative logarithm of the IC50 (pIC50) was 6.17.

With `COc1ncc(-c2ccc(NC(=O)Cc3ccccc3Cl)cc2S(N)(=O)=O)s1` [Example 422, 2-(2-Chlorophenyl)-N-[4-(2-methoxy-1,3-thiazol-5-yl)-3-sulfamoylphenyl]acetamide], the Emax stood at 90% and the pIC50 is 7.34.

For `Cc1ncc(-c2ccc(NC(=O)Cc3ccccc3Cl)cc2S(N)(=O)=O)s1` [Example 423, 2-(2-Chlorophenyl)-N-[4-(2-methyl-1,3-thiazol-5-yl)-3-sulfamoylphenyl]acetamide], the Emax worked out at 86% and the pIC50 was 7.28.

As for `Cc1cc(-c2ccc(NC(=O)Cc3ccccc3Cl)cc2S(N)(=O)=O)sn1` [Example 424, 2-(2-Chlorophenyl)-N-[4-(3-methyl-1,2-thiazol-5-yl)-3-sulfamoylphenyl]acetamide], the Emax worked out at 88% and the pIC50 was 7.54.

`Cc1csc(-c2ccc(NC(=O)Cc3ccccc3Cl)cc2S(N)(=O)=O)n1` [Example 425, 2-(2-Chlorophenyl)-N-[4-(4-methyl-1,3-thiazol-2-yl)-3-sulfamoylphenyl]acetamide]: the Emax turned out to be 74% and the pIC50 is 7.30.

Consider `NS(=O)(=O)c1cc(NC(=O)Cc2ccccc2Cl)ccc1-c1cnsc1` [Example 426, 2-(2-Chlorophenyl)-N-[3-sulfamoyl-4-(1,2-thiazol-4-yl)phenyl]acetamide], for which the Emax worked out at 86% and the pIC50 was 7.62.

With `NS(=O)(=O)c1cc(NC(=O)Cc2ccccc2Cl)ccc1-c1nccs1` [Example 427, 2-(2-Chlorophenyl)-N-[3-sulfamoyl-4-(1,3-thiazol-2-yl)phenyl]acetamide], the Emax came to 65% and the negative-log IC50 (pIC50) is 7.14.

Consider `N#Cc1csc(-c2ccc(NC(=O)Cc3ccccc3Cl)cc2S(N)(=O)=O)n1` [Example 428, 2-(2-Chlorophenyl)-N-[4-(4-cyano-1,3-thiazol-2-yl)-3-sulfamoylphenyl]acetamide], for which the Emax came to 57% and the pIC50 is 7.57.

On to `NS(=O)(=O)c1cc(NC(=O)Cc2ccccc2Cl)ccc1-c1cnc(C(F)F)s1` [Example 429, 2-(2-Chlorophenyl)-N-{4-[2-(difluoromethyl)-1,3-thiazol-5-yl]-3-sulfamoylphenyl}acetamide], for which the Emax came out at 91% and the pIC50 was 6.97.

As for `NS(=O)(=O)c1cc(NC(=O)Cc2ccccc2Cl)ccc1-c1cnc(C2CC2)s1` [Example 430, 2-(2-Chlorophenyl)-N-[4-(2-cyclopropyl-1,3-thiazol-5-yl)-3-sulfamoylphenyl]acetamide], the Emax was found to be 87% and the pIC50 was 7.07.

Take `NS(=O)(=O)c1cc(NC(=O)Cc2ccccc2Cl)ccc1-c1csc(C2CC2)n1` [Example 431, 2-(2-Chlorophenyl)-N-[4-(2-cyclopropyl-1,3-thiazol-4-yl)-3-sulfamoylphenyl]acetamide]: the Emax came to 83% and the pIC50 was 5.54.

As to `Cc1coc(-c2ccc(NC(=O)Cc3ccccc3Cl)cc2S(N)(=O)=O)n1` [Example 432, 2-(2-Chlorophenyl)-N-[4-(4-methyl-1,3-oxazol-2-yl)-3-sulfamoylphenyl]acetamide], the Emax came to 92% and the pIC50 was 6.22.

`NS(=O)(=O)c1cc(NC(=O)Cc2ccccc2Cl)ccc1-c1csc(C(F)(F)F)n1` [Example 433, 2-(2-Chlorophenyl)-N-{3-sulfamoyl-4-[2-(trifluoromethyl)-1,3-thiazol-4-yl]phenyl}acetamide]: the Emax was 28% and the pIC50 was below 4.60.

Turning to `NS(=O)(=O)c1cc(NC(=O)Cc2ccccc2Cl)ccc1-c1nc(C(F)(F)F)cs1` [Example 434, 2-(2-Chlorophenyl)-N-{3-sulfamoyl-4-[4-(trifluoromethyl)-1,3-thiazol-2-yl]phenyl}acetamide], the Emax worked out at 50%; the pIC50 was 4.75 and < 4.60.

Take `CC(C)(O)c1ncc(-c2ccc(NC(=O)Cc3ccccc3Cl)cc2S(N)(=O)=O)s1` [Example 435, 2-(2-Chlorophenyl)-N-{4-[2-(2-hydroxypropan-2-yl)-1,3-thiazol-5-yl]-3-sulfamoylphenyl}acetamide]: the Emax came to 77% and the pIC50 was 6.23.

Turning to `CC(C)(O)c1nc(-c2ccc(NC(=O)Cc3ccccc3Cl)cc2S(N)(=O)=O)cs1` [Example 436, 2-(2-Chlorophenyl)-N-{4-[2-(2-hydroxypropan-2-yl)-1,3-thiazol-4-yl]-3-sulfamoylphenyl}acetamide], the Emax turned out to be 56% and the pIC50 is 4.90.

As for `NS(=O)(=O)c1cc(NC(=O)Cc2ccccc2Cl)ccc1-c1cscn1` [Example 437, 2-(2-Chlorophenyl)-N-[3-sulfamoyl-4-(1,3-thiazol-4-yl)phenyl]acetamide], the Emax came to 53% and the pIC50 was 7.41.

`NS(=O)(=O)c1cc(NC(=O)Cc2ccccc2Cl)ccc1-c1cc(C2CC2)on1` [Example 438, 2-(2-Chlorophenyl)-N-[4-(5-cyclopropyl-1,2-oxazol-3-yl)-3-sulfamoylphenyl]acetamide]: the Emax came out at 75% and the pIC50 is 7.74.

`NS(=O)(=O)c1cc(NC(=O)Cc2ccccc2Cl)ccc1-c1cnc(C2CC2)o1` [Example 439, 2-(2-Chlorophenyl)-N-[4-(2-cyclopropyl-1,3-oxazol-5-yl)-3-sulfamoylphenyl]acetamide]: the Emax was 94% and the pIC50 is 8.40.

For `NS(=O)(=O)c1cc(NC(=O)Cc2ccccc2Cl)ccc1-n1cc(C(=O)N2CC(F)(F)C2)cn1` [Example 440, 2-(2-Chlorophenyl)-N-(4-{4-[(3,3-difluoroazetidin-1-yl)carbonyl]-1H-pyrazol-1-yl}-3-sulfamoylphenyl)acetamide], the Emax was 96% and the negative-log IC50 (pIC50) was 6.95.

Turning to `NS(=O)(=O)c1cc(NC(=O)Cc2ccccc2Cl)ccc1-n1cc(C(=O)N2CCC2)cn1` [Example 441, N-{4-[4-(Azetidin-1-ylcarbonyl)-1H-pyrazol-1-yl]-3-sulfamoylphenyl}-2-(2-chlorophenyl)acetamide], the Emax turned out to be 91% and the pIC50 was 6.73.

Take `NS(=O)(=O)c1cc(NC(=O)Cc2ccccc2Cl)ccc1-n1cc(C(=O)N2CCCC2)cn1` [Example 442, 2-(2-Chlorophenyl)-N-{4-[4-(pyrrolidin-1-ylcarbonyl)-1H-pyrazol-1-yl]-3-sulfamoylphenyl}acetamide]: the Emax came out at 89% and the pIC50 was 6.74.

Consider `NS(=O)(=O)c1cc(NC(=O)Cc2ccccc2Cl)ccc1-n1cc(C(=O)N2CCC(F)(F)C2)cn1` [Example 443, 2-(2-Chlorophenyl)-N-(4-{4-[(3,3-difluoropyrrolidin-1-yl)carbonyl]-1H-pyrazol-1-yl}-3-sulfamoylphenyl)acetamide], for which the Emax amounted to 84% and the pIC50 was 6.91.

Regarding `NS(=O)(=O)c1cc(NC(=O)Cc2ccc(Cl)cc2)ccc1-c1cncc(C(F)(F)F)c1` [Example 444, 2-(4-Chlorophenyl)-N-{3-sulfamoyl-4-[5-(trifluoromethyl)pyridin-3-yl]phenyl}acetamide], the Emax worked out at 77% and the pIC50 is 6.20.

As for `NS(=O)(=O)c1cc(NC(=O)Cc2c(F)cccc2Cl)ccc1-c1cncc(C(F)(F)F)c1` [Example 445, 2-(2-Chloro-6-fluorophenyl)-N-{3-sulfamoyl-4-[5-(trifluoromethyl)pyridin-3-yl]phenyl}acetamide], the Emax amounted to 71% and the pIC50 was 7.22.

Take `NS(=O)(=O)c1cc(NC(=O)Cc2ccc(C(F)(F)F)cc2)ccc1-c1cncc(C(F)(F)F)c1` [Example 446, N-{3-Sulfamoyl-4-[5-(trifluoromethyl)pyridin-3-yl]phenyl}-2-[4-(trifluoromethyl)phenyl]acetamide]: the Emax was 76% and the pIC50 is 6.21.

For `NS(=O)(=O)c1cc(NC(=O)Cc2cccc(F)c2)ccc1-c1cncc(C(F)(F)F)c1` [Example 447, 2-(3-Fluorophenyl)-N-{3-sulfamoyl-4-[5-(trifluoromethyl)pyridin-3-yl]phenyl}acetamide], the Emax amounted to 68% and the pIC50 was 5.99.
